This passage reports IC50 results from US20230031406A1, “COMPOUNDS AND COMPOSITIONS FOR TREATING CONDITIONS ASSOCIATED WITH NLRP ACTIVITY” (Novartis AG, priority 2018, published 2023).

The test system of this experiment is PMA-differentiated THP-1 cells. The experiment is described as follows: IL-1β production in PMA-differentiated THP-1 cells stimulated with gramicidin (hTHP-1 assay containing 2% fetal bovine serum; Procedures 1 and 2). The experiment is classed as cell-based, human. To be noted: 2% fetal bovine serum. The method in brief: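 Human monocytic THP-1 cells, matured overnight with PMA at 20 ng/ml, are seeded in low-serum (2% FBS) RPMI. Test compounds, at final concentrations from 100 down to 0.0017 μM, precede gramicidin (5 μM, 2 h) by one hour. Released IL-1β is then determined by HTRF.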

Setting [1] is: Table B2, class symbols, read-out: hTHP-1 IC50.
The mark [2] stands for this setting: Homo sapiens, THP-1, Table B2, class symbols, read-out: hTHP-1 IC50.
[3] abbreviates: Table B4, class symbols, read-out: hTHP-1 IC50.
[4] abbreviates: Homo sapiens, THP-1, Table B3, hTHP-1 assay, class symbols, read-out: IC50.
Setting [5] is: Table B3, hTHP-1 assay, class symbols, read-out: IC50.
Setting [6] is: Homo sapiens, THP-1, Table B1, numeric bounds, read-out: Average IC50 of compounds in hTHP-1 assay: hTHP-1 IC50.

Each structure is given as a SMILES string. pIC50: −log10 of the molar value. Like-named read-outs stand apart in the source and are kept apart here.

Broadly, the pIC50 is the negative decadic logarithm of the IC50, by convention in mol/L. On to `CC(O)c1nc(C(C)(C)O)sc1S(=N)(=O)NC(=O)Nc1c2c(nc3c1CCC3)CCC2` (centres unmarked) [Compound 643, N-((1,2,3,5,6,7-hexahydrodicyclopenta[b,e]pyridin-8-yl)carbamoyl)-4-(1-hydroxyethyl)-2-(2-hydroxypropan-2-yl)thiazole-5-sulfonimidamide], for which, under setting [1], the pIC50 was 4.52 to 5.30.
For `CCc1csc(S(N)(=O)=NC(=O)Nc2c3c(nc4c2CC[C@H]4C)CCC3)c1` (stereo partly drawn) [Compound 721c, 4-Ethyl-N′-(((R)-3-methyl-1,2,3,5,6,7-hexahydrodicyclopenta [b,e]pyridin-8-yl)carbamoyl)thiophene-2-sulfonimidamide], the pIC50 under setting [2] is 6.70 to 7.40.
For `CCn1cc(F)c(S(N)(=O)=NC(=O)Nc2c3c(nc(C(F)(F)F)c2C2CC2)CCC3)n1` (single isomer, unassigned) [Example 774, (S) or (R)-N′-((3-cyclopropyl-2-(trifluoromethyl)-6,7-dihydro-5H-cyclopenta[b]pyridin-4-yl)carbamoyl)-1-ethyl-4-fluoro-1H-pyrazole-3-sulfonimidamide], the negative-log IC50 (pIC50) under setting [3] was 4.52 to 5.30.
For `CCC1CCc2c1nc1c(c2NC(=O)N=S(N)(=O)c2cnc(C(C)(C)O)s2)CCC1` (single isomer, unassigned) [Compound 662a, (S, S) or (S, R) or (R, S) or (R, R)-N′-((3-Ethyl-1,2,3,5,6,7-hexaliydrodicyclopenta [b,e]pyridin-8-yl)caibamoyl)-2-(2-hydroxypropan-2-yl)thiazole-5-sulfonimidamide], the pIC50 (Table B2, numeric bounds, read-out: hTHP-1 IC50) is under 4.52.
`CC(C)(O)c1nc(CO)c(S(N)(=O)=NC(=O)Nc2c3c(nc4c2CCC4(C)C)CCC3)s1` (centres unmarked) [Compound 121, N′-((3,3-dimethyl-1,2,3,5,6,7-hexahydrodicyclopenta[b,e]pyridin-8-yl)carbamoyl)-4-(hydroxymethyl)-2-(2-hydroxypropan-2-yl)thiazole-5-sulfonimidamide]: the pIC50 (Homo sapiens, THP-1, Table B1, class symbols, read-out: Average IC50 of compounds in hTHP-1 assay: hTHP-1 IC50) is 6.00 to 6.70.
Regarding `CC(C)n1cc(Cl)c(S(N)(=O)=NC(=O)Nc2c3c(nc4c2CCC4)CCC3)n1` (single isomer, unassigned) [Compound 694b, (R) or (S)-4-Chloro-N′-((1,2,3,5,6,7-hexahydrodicyclopenta [b,e]pyridin-8-yl)carbamoyl)-1-isopropyl-1H-pyrazole-3-sulfonimidamide], the pIC50 under setting [2] is 5.30 to 6.00.
With `CCc1c(CC(F)(F)F)nc2c(c1NC(=O)N=S(N)(=O)c1sc(C(C)(C)O)cc1F)CCC2` (centres unmarked) [Example 594, N′-((3-ethyl-2-(2,2,2-trifluoroethyl)-6,7-dihydro-5H-cyclopenta[b]pyridin-4-yl)carbamoyl)-3-fluoro-5-(2-hydroxypropan-2-yl)thiophene-2-sulfonimidamide], the pIC50 under setting [4] was 5.30 to 6.00.
Regarding `CCn1cc(F)c(S(N)(=O)=NC(=O)Nc2c(C)c(C3CC3)nc3c2CCC3)n1` (single isomer, unassigned) [Example 714, (S) or (R)-N′-((2-cyclopropyl-3-methyl-6,7-dihydro-5H-cyclopenta[b]pyridin-4-yl)carbamoyl)-1-ethyl-4-fluoro-1H-pyrazole-3-sulfonimidamide], under setting [5], the pIC50 was 5.30 to 6.00.
As to `CCc1c(C(F)(F)F)nc2c(c1NC(=O)N=S(N)(=O)c1nn(C(F)F)cc1F)CCC2` (centres unmarked) [Example 572, 1-(Difluoromethyl)-N′-((3-ethyl-2-(trifluoromethyl)-6,7-dihydro-5H-cyclopenta[b]pyridin-4-yl)calbamoyl)-4-fluoro-1H-pyrazole-3-sulfonimidamide], the pIC50 under setting [4] was 5.30 to 6.00.
As for `Cc1c(C(F)(F)F)nc2c(c1NC(=O)N=S(N)(=O)c1nn(C(F)F)cc1F)CCC2` (single isomer, unassigned) [Example 563], under setting [5], the pIC50 is 4.52 to 5.30.
As to `Cc1cc(C(C)(C)O)sc1S(N)(=O)=NC(=O)Nc1c2c(nc3c1CCC3)CCC2` (single isomer, unassigned) [Compound 695b, (R) or (S)-N′-((1,2,3,5,6,7-hexahydrodicyclopenta [b,e]pyridin-8-yl)carbamoyl)-5-(2-hydroxypropan-2-yl)-3-methylthiophene-2-sulfonimidamide], the pIC50 under setting [2] was 4.52 to 5.30.
For `NS(=O)(=NC(=O)Nc1c2c(nc3c1CCC31CC1)CCC2)c1ccn(CCO)n1` (single isomer, unassigned) [Example 648, (S) or (R)-1-(2-hydroxyethyl)-N′-((1′,5′,6′,7′-tetrahydro-2′H-spiro[cyclopropane-1,3′-dicyclopenta[b,e]pyridin]-8′-yl)carbamoyl)-1H-pyrazole-3-sulfonimidamide], the pIC50 under setting [5] was 4.52 to 5.30.
As for `CCc1ncc(S(N)(=O)=NC(=O)Nc2c3c(nc4c2CC[C@H]4C)CCC3)s1` (single isomer, unassigned) [Example 674, (R) or (S)-2-ethyl-N′-(((R)-3-methyl-1,2,3,5,6,7-hexahydrodicyclopenta[b,e]pyridin-8-yl)carbamoyl) thiazole-5-sulfonimidamide], under setting [5], the pIC50 was 6.00 to 6.70.
For `CCn1cc(F)c(S(N)(=O)=NC(=O)Nc2c3c(nc(C(F)(F)F)c2-c2cccc(F)c2)CCC3)n1` (single isomer, unassigned) [Example 781, (R) or (S)-1-ethyl-4-fluoro-N′-((3-(3-fluorophenyl)-2-(trifluoromethyl)-6,7-dihydro-5H-cyclopenta[b]pyridin-4-yl)carbamoyl)-1H-pyrazole-3-sulfonimidamide], the pIC50 under setting [3] is 7.40 to 8.10.
On to `CC(C)c1nc2c(cc1NC(=O)N=S(N)(=O)c1cnc(C(C)(C)O)s1)CCC2` (single isomer, unassigned) [Example 701, (R) or (S)-2-(2-Hydroxypropan-2-yl)-N′-((2-isopropyl-6,7-dihydro-5H-cyclopenta[b]pyridin-3-yl)carbamoyl)thiazole-5-sulfonimidamide], for which the pIC50 under setting [4] was 4.52 to 5.30.
`CC(C)(O)c1cc(S(N)(=O)=NC(=O)Nc2c3c(nc4c2CCC4(C)C)CCC3)nn1-c1ccc(F)cc1` (single isomer, unassigned) [Compound 705a, (S) or (R)-N′-((3,3-dimethyl-1,2,3,5,6,7-hexahydrodicyclopenta [b,e]pyridin-8-yl)carbamoyl)-1-(4-fluorophenyl)-5-(2-hydroxypropan-2-yl)-1H-pyrazole-3-sulfonimidamide]: under setting [1], the pIC50 was 4.52 to 5.30.
In the case of `CC(C)(O)c1cc(S(N)(=O)=NC(=O)Nc2c3c(nc4c2CCC4(C)C)CCC3)nn1-c1ccc(F)cc1` (centres unmarked) [Compound 704, N′-((3,3-dimethyl-1,2,3,5,6,7-hexahydrodicyclopenta[b,e]pyridin-8-yl)carbamoyl)-1-(4-fluorophenyl)-5-(2-hydroxypropan-2-yl)-1H-pyrazole-3-sulfonimidamide], under setting [2], the pIC50 was 5.30 to 6.00.
`Cc1cc(C2CC2)nc(NC(=O)N=S(N)(=O)c2ncc(C(C)(C)O)s2)n1` (centres unmarked) [Compound 185, N′-((4-cyclopropyl-6-methylpyrimidin-2-yl)carbamoyl)-5-(2-hydroxypropan-2-yl)thiazole-2-sulfonimidamide]: the pIC50 is under 4.52 under setting [6] and under 4.52 (Homo sapiens, THP-1, Table B2, numeric bounds, read-out: hTHP-1 IC50).
With `CC(C)(O)c1ccc(S(N)(=O)=NC(=O)Nc2c3c(nc4c2CCC4)CCC3)cn1` (centres unmarked) [Compound 156, N′-((1,2,3,5,6,7-hexahydrodicyclopenta[b,e]pyridin-8-yl)carbamoyl)-6-(2-hydroxypropan-2-yl)pyridine-3-sulfonimidamide], under setting [6], the pIC50 was under 4.52.
